In patent US4514330A, “Carbon-7-substituted atinomycin D analogue” (Trustees of Boston University, priority 1983, dated 1985):
Values after ≈ are worked out from the molar mass of the structure shown. Like-named read-outs stand apart in the source and are kept apart here. Starred links: 1 amine or outer side, 2 acyl side, 3 side chain; linkers in the order of their positions; H or OH if unused. Positions of bridges follow the written chain, without caps; N, C: chain ends. Non-standard residues stand in square brackets, D forms with d. Residues, ends and D or L forms follow the SMILES beside them. Chains are numbered I, II in the order given. Actinocin(9to1) = Cc1c2oc3c(C)ccc(C(=O)[*:1])c3nc-2c(C(=O)[*:2])c(N)c1=O; NMeV = CN[C@H](C(=O)O)C(C)C; Sar = CNCC(=O)O

Key:
proliferating cells = settings: cited from earlier work
[1] = tested on: human lymphoblastic leukemic cells (CCRF-CEM); assay: In vitro growth-inhibitory activity against human lymphoblastic leukemic cells (CCRF-CEM) in log phase; assay type: cell-based; settings: Homo sapiens, final growth medium contained 1% Me2SO, log phase, read-out: ID50 (in vitro growth inhibition, CCRF-CEM)
Method: ^b Using human lymohoblastic leukemia cells in logplastic growth.
Compounds were dissolved in Me2 So medium, final growth medium

normal CDF1 male mice = assay: Maximum tolerated dose (LD10) in normal, tumor-free CDF1 male mice; assay type: in vivo; settings: deaths during 21 days
Method: ^c MTD (maximum tolerated dose) is the lethal dose
(milligrams/kilogram) for 10% normal CDF1 male mice (18-23 g);
were calculated from a plot of log dose vs. percent mortality. Average of
two to three experiments.
Biological Experiments. Determination of LD10 Values. Tumor-free CDF1 male mice weighing 18-23 g were given a broad range of doses of drugs in 10% dimethyl sulfoxide-saline on either days 1, 5 and 9 or on 4 successive days. Drugs were administered intraperitoneally (ip).
The maximum tolerated doses of AMD and analogues that caused deaths in only 10% of the tested animals in 21 days were recorded as MTD. The results are an average of two experiments in each. The MTD values obtained following schedules q4d 1, 5, 9 (three injections) and qd 1-4 (four injections) are recorded in Table IV. These doses are the same as LD10 (lethal dose of 10% of tumor-free animals in 21 days).

patients = settings: attributed to lack of metabolism / excretion; listed as AMD; cited from earlier work
DNA [2] = settings: known analogues; cited from earlier work
[3] = tested on: DNA-dependent RNA synthesis; settings: submicromolar concentrations; cited from earlier work
[4] = tested on: spleen, liver, kidney, large and small intestine, heart, lung, pancreas and adrenals; assay: Gross pathology of organ sections at LD10 (MTD) dose levels, day 14; assay type: in vivo, CDF1 mice
Method: In an additional experiment, two animals at LD10 (or MTD) dose levels were sacrificed on day 14, and the organ sections from these animals were evaluated for gross pathology in the following way. Organs, e.g., spleen, liver, kidney, large and small intestine, heart, lung, pancreas and adrenals, were removed and fixed in 10% […] buffer formalin. They were kept immersed for 2 weeks; tissues were dehydrated through graded alcohols (70, 90, 95 and 100%), cleared in cedarwood oil and embedded in paraffin. Sections were cut in 7 μm and mounted with gelatin on microscope slides. After drying, sections were stained with Mayer's hematoxylin and eosin and examined with light microscopy.

DNA [5] = assay: Thermal denaturation of DNA (ΔTm), stabilization of DNA helical structure on drug binding; design: species or system calf thymus
Method: Thermal denaturation studies were carried out according to the procedure described in J. Med. Chem., Vol. 24, p. 1052 (1981). The ΔTm values in Table II give a measure of stabilization of DNA helical structure as a consequence of drug binding.
^a ΔTm = m of DNAdrug complex minus m of DNA.
Concentraiton of drug, 1.4 × 10^-4 M; of DNA (P), 1.4 ×
10^-3 M in 0.01 M phosphate buffer (pH 7.0), 5 × 10^-3 M in
EDTA and 5% dimethyl sulfoxide.
^d Highest dose tested. These values are derived at high temperatur
(67°-75° C.) and may not always correlate with the results
of other DNA-binding studies (e.g., absorptiometric or circular dichroic).
Melting points were obtained with a Thomas-Hoover melting point apparatus at a heating rate of 2° C./min. Column chromatography was accomplished with silica gel powder (Baker No. 3405, 60-20 mesh) or acid alumina (Woelm grade 1). Limited gel-filtration work was done on Sephadex LH-20, particle size 25-100 μm (Pharmacia Fine Chemicals). Thin-layer chromatography was performed on silica gel plates (E. M. Laboratories, Inc.). Solvent systems used were (A) butanol-formic acid-H2 O (75:13:12), (B) EtOAc-acetone (3:1), and (C) Cifferri, the organic phase of the mixture EtOAc-MeOH-H2 O (20:1:20). High-performance liquid chromatography was carried out on a Varian Model 5020 gradient liquid chromatograph equipped with CD-111L chromatography data system and fitted with Varian reversed-phase C18 column with isocratic solvent systems, CH3 -CN-5 mM NH4 OAc buffer, pH 6.4 (68:32 or 62:38), pressure 80-140 atm, flow rate 1.5 mL/min, with UV-visible variable and fixed wavelength dual detectors at 254 and 466 nm. Spectra were determined on the following instruments: IR spectra were obtained with a Perkin-Elmer Model 237 Infra Cord with KBr micropellets or chloroform solutions; UV-visible spectra were obtained on a Gilford 250 spectrophotometer, which, with the addition of a base-line reference compensator (Analog Multiplexer 6064) and thermoprogrammer, auto four cell programmer and thermoelectric cell holder 2577, was used to obtain thermal denaturation curves; NMR spectra were obtained on a JOEL FQ-90-90MHZ spectrometer equipped with Fourier transform; and CD spectra were obtained on a Cary 61 spectrophotometer. All elemental analyses were within ±0.4% of the theoretical values. Actinomycin D, batch no. NCS 3053, lot L554651-0-10, was provided by Natural Products Branch, National Cancer Institute, Silver Spring, Md. Calf thymus DNA type 1 was purchased from Sigma Chemical Co.

P-388 leukemia = assay: In vivo antitumor activity against P-388 lymphocytic leukemia in CDF1 mice; settings: for % ILS (percent increase in life span) / MST (median survival time) / cure (over 55 day survivors): days 1, 5, 9; for minimal effective dose: Mus musculus, P388, ip, read-out: MED (minimum effective dose, 40% increase in life span over control)
Method: Studies on in vivo activity of AMD and AMD analogues were carried out with P-388 lymphocytic leukemia in CDF1 hybrid mice. The drugs were administered either daily for 4 successive days (qd 1-4) or on days 1, 5 and 9 (q4d 1, 5, 9) beginning 1 day after tumor implantation.
^a Male CDF1 (18-23 g) mice were inoculated intraperitoneally
(ip) with 10^6 P388 cells on day 0. Drugs were administered, also ip,
in 10% dimethyl sulfoxidesaline on days 1, 5 and 9. Test solutions were
kept at 0-4° C., protected from light, and the stability and
homogeneity were checked periodically by TLC and HPLC.
^b MST = median survival time.
^c % ILS = percent increase in life span.
^d Over 55 day survivors. Average of three experiments. The
^a Drugs administed ip once daily either for 4 successive days (qd
1-4) or on days 1, 5 and 9 (q4d 1, 5 9), starting 1 day after tumor
^b MED (minimum effective dose) is the dose (milligrams/kilogram)
providing an increase in life span of 40% over control in P388

[6] = cited from earlier work
[7] = tested on: Wilm's tumor, gestational choriocarcinoma, and Kaposi's sarcoma; settings: cited from earlier work
[8] = three injections ip, q4d 1, 5, 9

Cc1c2oc3c(C)ccc(C(=O)N[C@@H]4C(=O)N[C@H](C(C)C)C(=O)N5CCC[C@H]5C(=O)N(C)CC(=O)N(C)[C@@H](C(C)C)C(=O)O[C@@H]4C)c3nc-2c(C(=O)N[C@@H]2C(=O)N[C@H](C(C)C)C(=O)N3CCC[C@H]3C(=O)N(C)CC(=O)N(C)[C@@H](C(C)C)C(=O)O[C@@H]2C)c(N)c1=O [Compound 1b, Actinomycin D, reference compound] (I: T[dV]P[Sar][NMeV] / II: T[dV]P[Sar][NMeV]; ester I:1-I:C, II:1-II:C; linker I:N-II:N via Actinocin(9to1))
cytotoxicity in proliferating cells versus nonproliferating (liver, kidney, muscle) (proliferating cells): far more cytotoxic in those proliferating cells | IC50 [1]: 0.06 µg/mL (≈ 0.0478 µM) | MTD (maximum tolerated dose, lethal for 10% of normal mice; = LD10) (normal CDF1 male mice; four injections ip, qd 1-4): 0.15 milligrams/kilogram | MTD (maximum tolerated dose, lethal for 10% of normal mice; = LD10) (normal CDF1 male mice; [8]): 0.25 milligrams/kilogram | toxicity (patients): acute and cumulative toxicity | mode of DNA binding, same way as AMD (DNA [2]): by intercalation of the chromophore and concomitant hydrogen and hydrophobic interactions of the peptide lactones | inhibition of DNA-dependent RNA synthesis [3]: strongly inhibits | pathology of spleen sections [4]: haematopoiesis indicative of bone-marrow toxicity | Tm (ΔTm = Tm of DNA-drug complex minus Tm of DNA) (DNA [5]; drug 1.4 × 10^-4 M, DNA (P) 1.4 × 10^-3 M, 0.01 M phosphate buffer pH 7.0, EDTA, 5% dimethyl sulfoxide): 7.1 ± 0.15 °C | DNA melting profile / ΔTm character of the DNA complex (DNA [5]; thermal denaturation, words): sharp and smooth | % ILS (percent increase in life span) (P-388 leukemia; 0.031 mg/kg ip): 18% | MST (median survival time) (P-388 leukemia; 0.031 mg/kg ip): 13 days | cure (over 55 day survivors) (P-388 leukemia; 0.031 mg/kg ip): 0/7 | % ILS (percent increase in life span) (P-388 leukemia; 0.062 mg/kg ip): 45% | MST (median survival time) (P-388 leukemia; 0.062 mg/kg ip): 16 days | cure (over 55 day survivors) (P-388 leukemia; 0.062 mg/kg ip): 1/7 | % ILS (percent increase in life span) (P-388 leukemia; 0.125 mg/kg ip): 136% | MST (median survival time) (P-388 leukemia; 0.125 mg/kg ip): 26 days | cure (over 55 day survivors) (P-388 leukemia; 0.125 mg/kg ip): 0/7 | % ILS (percent increase in life span) (P-388 leukemia; 0.250 mg/kg ip): 55% | MST (median survival time) (P-388 leukemia; 0.250 mg/kg ip): 17 days | cure (over 55 day survivors) (P-388 leukemia; 0.250 mg/kg ip): 0/7 | MST (median survival time) (P-388 leukemia; 0.375 mg/kg ip): 9 days | minimal effective dose (P-388 leukemia; four injections ip, qd 1-4): 0.05 mg/kg | minimal effective dose (P-388 leukemia; [8]): 0.0625 mg/kg | therapeutic index: MTD/MED (P-388 leukemia; four injections ip, qd 1-4): 3 | activity in respect of % ILS, 1b versus 2b (P-388 leukemia; ip, q4d 1, 5, 9): approximately equiactive | breadth of dose-response curve (P-388 leukemia; ip, q4d 1, 5, 9): very narrow | therapeutic index: MTD/MED (P-388 leukemia; [8]): 4 | in vivo metabolism [6]: not metabolized in vivo | activity in several tumors [7]: potent activity
